# Laboratory results taken from patent US11345678B2, “Benzopyrazole compound used as RHO kinase inhibitor” (MEDSHINE DISCOVERY INC., priority 2018, dated 2022).
# Legend:
# [1] = biological target: ROCK1 (Homo sapiens (Human), UniProt Q13464); assay: In vitro inhibitory activity against ROCK protein kinase (33P-ATP filter-binding), ROCK1; assay type: biochemical; details: 1 nM ROCK protein kinase, 20 μM Long S6 Kinase substrate peptide
# Method: (§1) 1. In Vitro Evaluation of the Inhibitory Activity Against ROCK Protein Kinase
# (§2) Experimental purpose: to detect the inhibitory IC50 value of the compound against ROCK protein kinase.
# (§3) Assay buffer solution: 20 mM 4-hydroxyethylpiperazine ethanesulfonic acid (pH 7.5), 10 mM magnesium chloride, 1 mM ethylene glycol-bis-(2-aminoethyl)tetraacetic acid, 0.02% polyethylene glycol monododecyl ether, 0.02 mg/mL bovine serum albumin, 0.1 mM sodium vanadate, 2 mM dithiothreitol, 1% DMSO.
# (§4) The freshly prepared buffer solution was added to ROCK protein kinase substrate (Long S6 Kinase substrate peptide), at a concentration of 20 μM, then 1 nM ROCK protein kinase was added thereto and stirred evenly. Echo550 was used to add a series of DMSO dilutions containing the test compound (starting from 10 μM, serially diluted by 3 times), the solution was pre-incubated at room temperature for 20 minutes, then ^33P-ATP (radiation intensity 10 μCi/μL) was added to initiate the reaction, and the reaction was performed at room temperature for two hours. Then the solution was filtered by P81 ion exchange paper (Whatman #3698-915) and washed with 0.75% phosphoric acid. The radiation intensity was determined by Filter-Binding method.
# (§5) The protein kinase inhibitory activity of the compound was expressed as the remaining protein kinase activity relative to the blank substrate (simply DMSO). Prism software package (GraphPad Software, San Diego Calif., USA) was used to calculate IC50 value and the curve.
# [2] = biological target: ROCK2 (Homo sapiens (Human), UniProt O75116); assay: In vitro inhibitory activity against ROCK protein kinase (33P-ATP filter-binding), ROCK2; assay type: biochemical; details: 1 nM ROCK protein kinase, 20 μM Long S6 Kinase substrate peptide
# Method: as §1, §2, §3, §4, §5
# Sequence of ROCK1 (Q13464 whole entry): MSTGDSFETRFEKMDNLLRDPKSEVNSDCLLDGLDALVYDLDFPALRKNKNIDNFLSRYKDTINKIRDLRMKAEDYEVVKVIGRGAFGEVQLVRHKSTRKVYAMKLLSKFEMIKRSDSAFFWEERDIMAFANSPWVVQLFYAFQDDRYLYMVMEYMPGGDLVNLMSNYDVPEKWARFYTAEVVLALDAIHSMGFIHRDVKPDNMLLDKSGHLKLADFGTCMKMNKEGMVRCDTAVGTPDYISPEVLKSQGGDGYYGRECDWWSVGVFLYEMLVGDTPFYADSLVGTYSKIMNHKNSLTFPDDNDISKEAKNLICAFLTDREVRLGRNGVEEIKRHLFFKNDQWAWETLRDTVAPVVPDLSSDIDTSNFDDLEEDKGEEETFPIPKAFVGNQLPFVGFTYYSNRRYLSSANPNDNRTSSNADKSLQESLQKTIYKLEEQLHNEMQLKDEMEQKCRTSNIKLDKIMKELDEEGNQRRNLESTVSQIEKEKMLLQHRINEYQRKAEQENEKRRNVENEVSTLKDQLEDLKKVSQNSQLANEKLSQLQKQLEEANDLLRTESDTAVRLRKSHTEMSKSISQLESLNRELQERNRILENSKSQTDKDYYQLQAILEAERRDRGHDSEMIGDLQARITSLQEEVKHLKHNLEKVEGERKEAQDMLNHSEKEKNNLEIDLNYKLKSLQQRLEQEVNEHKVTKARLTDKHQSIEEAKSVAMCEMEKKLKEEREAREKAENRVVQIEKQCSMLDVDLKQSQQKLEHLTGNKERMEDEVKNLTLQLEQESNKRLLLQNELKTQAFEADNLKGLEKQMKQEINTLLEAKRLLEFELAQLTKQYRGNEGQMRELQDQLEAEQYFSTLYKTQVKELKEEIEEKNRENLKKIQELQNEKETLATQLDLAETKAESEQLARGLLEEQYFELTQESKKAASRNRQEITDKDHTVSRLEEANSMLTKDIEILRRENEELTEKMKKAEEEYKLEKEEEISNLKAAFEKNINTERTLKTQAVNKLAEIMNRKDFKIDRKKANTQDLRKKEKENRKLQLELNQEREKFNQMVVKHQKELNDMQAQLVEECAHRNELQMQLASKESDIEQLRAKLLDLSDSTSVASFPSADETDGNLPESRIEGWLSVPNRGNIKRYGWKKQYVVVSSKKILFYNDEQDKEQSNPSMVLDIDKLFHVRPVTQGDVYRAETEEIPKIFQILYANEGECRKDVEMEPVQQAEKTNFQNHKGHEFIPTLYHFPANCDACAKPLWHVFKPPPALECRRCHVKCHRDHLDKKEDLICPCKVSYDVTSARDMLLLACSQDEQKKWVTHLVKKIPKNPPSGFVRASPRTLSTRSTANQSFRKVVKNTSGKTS
# Sequence of ROCK2 (O75116 whole entry): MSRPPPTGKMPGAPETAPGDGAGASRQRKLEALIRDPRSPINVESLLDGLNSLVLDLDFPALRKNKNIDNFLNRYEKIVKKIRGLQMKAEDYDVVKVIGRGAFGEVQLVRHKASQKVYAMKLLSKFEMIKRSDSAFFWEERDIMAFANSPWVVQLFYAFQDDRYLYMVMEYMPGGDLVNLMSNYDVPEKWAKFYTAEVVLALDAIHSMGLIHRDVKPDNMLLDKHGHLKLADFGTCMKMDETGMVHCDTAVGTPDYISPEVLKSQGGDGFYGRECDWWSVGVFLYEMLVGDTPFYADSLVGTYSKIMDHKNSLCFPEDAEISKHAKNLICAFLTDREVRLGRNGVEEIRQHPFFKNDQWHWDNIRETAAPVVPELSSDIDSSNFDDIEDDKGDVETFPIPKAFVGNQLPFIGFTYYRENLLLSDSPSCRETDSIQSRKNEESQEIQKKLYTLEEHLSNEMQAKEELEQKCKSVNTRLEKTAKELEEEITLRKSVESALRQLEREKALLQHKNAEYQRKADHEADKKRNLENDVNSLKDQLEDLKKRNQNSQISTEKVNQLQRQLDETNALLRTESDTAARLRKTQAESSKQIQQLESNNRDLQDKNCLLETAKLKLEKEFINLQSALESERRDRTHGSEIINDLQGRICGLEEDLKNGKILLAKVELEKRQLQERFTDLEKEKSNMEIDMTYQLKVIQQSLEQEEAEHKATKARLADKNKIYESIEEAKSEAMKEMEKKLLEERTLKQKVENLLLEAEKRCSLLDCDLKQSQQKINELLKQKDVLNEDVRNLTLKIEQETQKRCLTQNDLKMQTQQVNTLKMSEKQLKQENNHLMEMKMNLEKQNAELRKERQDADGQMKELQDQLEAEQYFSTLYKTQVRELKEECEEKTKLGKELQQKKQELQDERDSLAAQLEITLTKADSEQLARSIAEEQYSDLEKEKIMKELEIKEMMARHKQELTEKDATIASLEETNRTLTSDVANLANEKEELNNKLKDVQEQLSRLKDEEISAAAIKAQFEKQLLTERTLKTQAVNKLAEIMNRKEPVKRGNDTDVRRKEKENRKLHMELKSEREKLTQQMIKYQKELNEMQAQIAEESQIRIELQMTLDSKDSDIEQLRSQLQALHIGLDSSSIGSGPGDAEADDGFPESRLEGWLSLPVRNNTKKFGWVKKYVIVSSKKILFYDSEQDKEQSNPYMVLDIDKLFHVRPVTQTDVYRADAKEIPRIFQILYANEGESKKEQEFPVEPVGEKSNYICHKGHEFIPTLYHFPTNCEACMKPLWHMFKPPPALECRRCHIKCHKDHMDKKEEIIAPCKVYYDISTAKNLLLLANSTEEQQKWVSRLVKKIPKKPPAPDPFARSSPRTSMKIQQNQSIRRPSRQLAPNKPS
Structure (SMILES),IC50 [1] [nM],IC50 [2] [nM]
COc1cccc(C(CCO)NC(=O)c2ccnc(-c3ccc4[nH]ncc4c3)c2)c1 (stereo not drawn) [Compound 1],1640,21
COc1cccc(C(CCO)NC(=O)c2cccc(-c3ccc4[nH]ncc4c3)c2)c1 (stereo not drawn) [Compound 2],79,< 1
COc1cccc(C(CCO)NC(=O)c2cncc(-c3ccc4[nH]ncc4c3)c2)c1 (stereo not drawn) [Compound 3],765,11
COc1cccc(C(CCO)NC(=O)c2cc(-c3ccc4[nH]ncc4c3)ccn2)c1 (stereo not drawn) [Compound 4],288,6
COc1cccc(C(CO)NC(=O)c2cccc(-c3ccc4[nH]ncc4c3)c2)c1 (stereo not drawn) [Compound 5],33,6
O=C(NC(CCO)c1cccc(F)c1)c1cccc(-c2ccc3[nH]ncc3c2)c1 (stereo not drawn) [Compound 6],63,7
COc1cccc(C(CCN)NC(=O)c2cccc(-c3ccc4[nH]ncc4c3)c2)c1 (stereo not drawn) [Compound 7],24,4
COc1cccc(C(CCN(C)C)NC(=O)c2cccc(-c3ccc4[nH]ncc4c3)c2)c1 (stereo not drawn) [Compound 8],166,10
COc1cccc(C(CN)NC(=O)c2cccc(-c3ccc4[nH]ncc4c3)c2)c1 (stereo not drawn) [Compound 9],25,4
COc1cccc(C(CN(C)C)NC(=O)c2cccc(-c3ccc4[nH]ncc4c3)c2)c1 (stereo not drawn) [Compound 10],79,6
COc1cccc(C(CO)NC(=O)c2ccc(F)c(-c3ccc4[nH]ncc4c3)c2)c1 (stereo not drawn) [Compound 11],79,5
COc1cccc(C(CO)NC(=O)c2cc(F)cc(-c3ccc4[nH]ncc4c3)c2)c1 (stereo not drawn) [Compound 12],257,12
O=C(NC(CCO)c1cccc(Cl)c1)c1cccc(-c2ccc3[nH]ncc3c2)c1 (stereo not drawn) [Compound 13],139,16
COc1cccc(C(CN2CCCC2)NC(=O)c2cccc(-c3ccc4[nH]ncc4c3)c2)c1 (stereo not drawn) [Compound 14],103,8
COc1cccc(C(CO)NC(=O)c2cc(-c3ccc4[nH]ncc4c3)ccc2F)c1 (stereo not drawn) [Compound 15],278,12
O=C(NC(CO)c1cc(F)ccc1F)c1cccc(-c2ccc3[nH]ncc3c2)c1 (stereo not drawn) [Compound 16],259,26
O=C(NC(CO)c1cc(F)cc(F)c1)c1cccc(-c2ccc3[nH]ncc3c2)c1 (stereo not drawn) [Compound 17],,23
O=C(NC(CO)c1ccc(F)c(F)c1)c1cccc(-c2ccc3[nH]ncc3c2)c1 (stereo not drawn) [Compound 18],,29
O=C(NC(CO)c1cccc(F)c1F)c1cccc(-c2ccc3[nH]ncc3c2)c1 (stereo not drawn) [Compound 19],735,35
O=C(NC(CCO)c1ccccc1F)c1cccc(-c2ccc3[nH]ncc3c2)c1 (stereo not drawn) [Compound 20],304,35
COc1cccc(CNC(=O)c2cccc(-c3ccc4[nH]ncc4c3)c2)c1 [Compound 21],,3

Structure (SMILES),IC50 [1] [nM],IC50 [2] [nM]
O=C(NC(CO)c1cccc(F)c1)c1cccc(-c2ccc3[nH]ncc3c2)c1 (stereo not drawn) [Compound 22],52,6
NCC(NC(=O)c1cccc(-c2ccc3[nH]ncc3c2)c1)c1cccc(F)c1 (stereo not drawn) [Compound 23],29,7
O=C(NC(CN1CCCC1)c1cccc(F)c1)c1cccc(-c2ccc3[nH]ncc3c2)c1 (stereo not drawn) [Compound 24],126,14
COc1cccc(C(CO)NC(=O)c2cccc(-c3ccc4[nH]nc(N)c4c3)c2)c1 (stereo not drawn) [Compound 27],407,30
COc1cccc(C(CN)NC(=O)c2cccc(-c3ccc4[nH]nc(F)c4c3)c2)c1 (stereo not drawn) [Compound 28],43,13
COc1cccc(C(CN)NC(=O)c2cccc(-c3ccc4[nH]nc(N)c4c3)c2)c1 (stereo not drawn) [Compound 29],65,7
COc1cccc(C(CN)NC(=O)c2cccc(-c3ccc4[nH]nc(C)c4c3)c2)c1 (stereo not drawn) [Compound 30],43,3
COCCC(NC(=O)c1cccc(-c2ccc3[nH]ncc3c2)c1)c1cccc(OC)c1 (stereo not drawn) [Compound 31],223,20
COc1cccc(C(CN2CCNCC2)NC(=O)c2cccc(-c3ccc4[nH]ncc4c3)c2)c1 (stereo not drawn) [Compound 32],343,23
COc1cccc(C(CN)NC(=O)c2cc(-c3ccc4[nH]nc(C)c4c3)cc3c2CNC3)c1 (stereo not drawn) [Compound 33],,16
COc1cccc(C(CN)NC(=O)c2cc(-c3ccc4[nH]nc(C)c4c3)cc3cccnc23)c1 (stereo not drawn) [Compound 34],1430,17
COc1cccc(C(CN2CCCC2)NC(=O)c2cccc(-c3ccc4[nH]nc(C)c4c3)c2)c1 (stereo not drawn) [Compound 37],290,7
COc1cccc(C(CNC(C)C)NC(=O)c2cccc(-c3ccc4[nH]nc(C)c4c3)c2)c1 (stereo not drawn) [Compound 38],75,14
COc1cccc(C(CN)NC(=O)c2cc(CN3CCCC3)cc(-c3ccc4[nH]nc(C)c4c3)c2)c1 (stereo not drawn) [Compound 39],429,15
NCC(NC(=O)c1cccc(-c2ccc3[nH]nc(F)c3c2)c1)c1cccc(F)c1 (stereo not drawn) [Compound 41],,21
Cc1n[nH]c2ccc(-c3cccc(C(=O)NC(CN)c4cccc(F)c4)c3)cc12 (stereo not drawn) [Compound 42],,4
Cc1n[nH]c2ccc(-c3cccc(C(=O)NC(CN)c4cccc(Cl)c4)c3)cc12 (stereo not drawn) [Compound 43],153,6
COc1cccc(C2(NC(=O)c3cccc(-c4ccc5[nH]nc(C)c5c4)c3)CCNC2)c1 (stereo not drawn) [Compound 44],106,4
COc1cccc(C2(NC(=O)c3cccc(-c4ccc5[nH]nc(F)c5c4)c3)CCNC2)c1 (stereo not drawn) [Compound 45],1270,19
COc1cccc(C2(NC(=O)c3cc(-c4ccc5[nH]nc(C)c5c4)ccn3)CCNC2)c1 (stereo not drawn) [Compound 46],267,8
COc1cccc(C(CN)NC(=O)c2cc(-c3ccc4[nH]nc(C)c4c3)ccc2OC(F)F)c1 (stereo not drawn) [Compound 47],67,12

Structure (SMILES),IC50 [1] [nM],IC50 [2] [nM]
COc1cccc(C(CN)NC(=O)c2cc(-c3ccc4[nH]nc(F)c4c3)ccc2OC(F)F)c1 (stereo not drawn) [Compound 48],84,9
COc1cccc(C(CN)NC(=O)c2cc(-c3ccc4[nH]nc(C)c4c3)ccc2OC)c1 (stereo not drawn) [Compound 50],56,5
COc1cccc(C(CN)NC(=O)c2cc(-c3ccc4[nH]nc(F)c4c3)ccc2OC)c1 (stereo not drawn) [Compound 51],50,7
COc1cc(C(=O)NC(CN)c2cccc(OC)c2)cc(-c2ccc3[nH]nc(C)c3c2)c1 (stereo not drawn) [Compound 52],182,10
COc1cc(C(=O)NC(CN)c2cccc(OC)c2)cc(-c2ccc3[nH]nc(F)c3c2)c1 (stereo not drawn) [Compound 53],1090,20
COc1cccc(C(CN)NC(=O)c2cccc(-c3ccc4[nH]nc(F)c4c3)c2)c1 (stereo not drawn) [Compound 54],180,21
COc1cccc(C(CN2CCNCC2)NC(=O)c2cccc(-c3ccc4[nH]nc(F)c4c3)c2)c1 (stereo not drawn) [Compound 55],4120,51
COc1cccc(C(CN2CCNCC2)NC(=O)c2cccc(-c3ccc4[nH]nc(C)c4c3)c2)c1 (stereo not drawn) [Compound 56],2300,44
COc1cccc(C(CN)NC(=O)c2cc(C#N)cc(-c3ccc4[nH]nc(C)c4c3)c2)c1 (stereo not drawn) [Compound 57],1260,58
COc1cccc(C(CN)NC(=O)c2cc(CN3CCCC3)cc(-c3ccc4[nH]nc(F)c4c3)c2)c1 (stereo not drawn) [Compound 58],1610,48
Cc1n[nH]c2ccc(-c3cccc(C(=O)NC(CO)c4cccc(F)c4)c3)cc12 (stereo not drawn) [Compound 59],94,16
O=C(NC(CO)c1cccc(F)c1)c1cccc(-c2ccc3[nH]nc(F)c3c2)c1 (stereo not drawn) [Compound 60],215,44
NCC(NC(=O)c1cccc(-c2ccc3[nH]nc(F)c3c2)c1)c1cccc(F)c1F (stereo not drawn) [Compound 62],289,48
Cc1n[nH]c2ccc(-c3cccc(C(=O)NC(CN)c4cccc(OC5CC5)c4)c3)cc12 (stereo not drawn) [Compound 63],,35
CNCC(NC(=O)c1cccc(-c2ccc3[nH]nc(C)c3c2)c1)c1cccc(OC)c1 (stereo not drawn) [Compound 65],138,4
Cc1cccc(C(CN)NC(=O)c2cc(-c3ccc4[nH]nc(C)c4c3)ccn2)c1 (stereo not drawn) [Compound 67],336,22
COc1cccc(C(CN)NC(=O)c2cccc(-c3ccc4[nH]nc(C5CC5)c4c3)c2)c1 (stereo not drawn) [Compound 68],,8
COc1cccc(C(CN)NC(=O)c2cc(-c3ccc4[nH]nc(C)c4c3)ncn2)c1 (stereo not drawn) [Compound 69],,12
COc1cccc(C(CNC(C)C)NC(=O)c2cc(-c3ccc4[nH]nc(C)c4c3)ccn2)c1 (stereo not drawn) [Compound 70],,24
COc1cccc(C(CN)NC(=O)c2cccc(-c3cc(OC)c4[nH]ncc4c3)c2)c1 (stereo not drawn) [Compound 71],758,9
